# Measurements from ChEMBL document CHEMBL5233210, “Pyrazolone structural motif in medicinal chemistry: Retrospect and prospect” (Eur J Med Chem, 2020).
# What was measured:
# [1] = species: Rattus norvegicus; assay: Anticonvulsant activity in tryptamine seizure potentiated Wistar rat; assay type: functional
# [2] = biological target: T1, Prostaglandin G/H synthase 1 (Ovis aries, UniProt P05979); assay: Inhibition of ovine COX-1
# T1 sequence (P05979 whole entry): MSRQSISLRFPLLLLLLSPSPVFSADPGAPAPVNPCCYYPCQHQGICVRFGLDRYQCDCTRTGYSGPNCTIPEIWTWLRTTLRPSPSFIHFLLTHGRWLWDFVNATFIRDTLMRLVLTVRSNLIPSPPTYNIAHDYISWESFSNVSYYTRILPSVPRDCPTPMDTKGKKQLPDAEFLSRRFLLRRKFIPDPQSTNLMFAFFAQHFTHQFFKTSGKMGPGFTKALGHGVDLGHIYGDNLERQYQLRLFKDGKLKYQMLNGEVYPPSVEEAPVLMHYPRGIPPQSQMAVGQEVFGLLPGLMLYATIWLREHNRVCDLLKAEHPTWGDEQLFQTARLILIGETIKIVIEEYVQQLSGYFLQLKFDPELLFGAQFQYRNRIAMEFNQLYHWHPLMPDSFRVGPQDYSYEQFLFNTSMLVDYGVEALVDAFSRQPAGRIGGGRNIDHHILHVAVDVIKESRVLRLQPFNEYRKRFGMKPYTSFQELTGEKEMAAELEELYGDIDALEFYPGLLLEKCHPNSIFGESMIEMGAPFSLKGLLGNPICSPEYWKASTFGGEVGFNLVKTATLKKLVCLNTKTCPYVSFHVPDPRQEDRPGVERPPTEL
# [3] = biological target: T2, Prostaglandin G/H synthase 2 (Ovis aries, UniProt P79208); assay: Inhibition of ovine COX-2
# T2 sequence (P79208 whole entry): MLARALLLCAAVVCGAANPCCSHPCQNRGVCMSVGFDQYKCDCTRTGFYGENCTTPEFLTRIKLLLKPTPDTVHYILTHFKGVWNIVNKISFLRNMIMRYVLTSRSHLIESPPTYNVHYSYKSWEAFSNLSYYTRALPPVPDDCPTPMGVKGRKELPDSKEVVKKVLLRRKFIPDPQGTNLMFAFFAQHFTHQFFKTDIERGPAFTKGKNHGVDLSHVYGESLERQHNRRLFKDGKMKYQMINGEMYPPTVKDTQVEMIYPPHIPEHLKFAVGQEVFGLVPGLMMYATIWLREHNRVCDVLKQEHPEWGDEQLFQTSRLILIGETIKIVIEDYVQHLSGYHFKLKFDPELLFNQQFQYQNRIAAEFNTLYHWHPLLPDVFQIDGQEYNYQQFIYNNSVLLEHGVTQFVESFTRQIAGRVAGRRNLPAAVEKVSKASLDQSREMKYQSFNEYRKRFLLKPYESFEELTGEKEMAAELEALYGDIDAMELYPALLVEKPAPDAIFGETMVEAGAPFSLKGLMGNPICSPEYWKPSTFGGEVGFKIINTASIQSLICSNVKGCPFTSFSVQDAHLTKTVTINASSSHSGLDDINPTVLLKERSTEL
# [4] = species: Ovis aries; assay: Selectivity index, ratio of IC50 for ovine COX-1 to IC50 for ovine COX-2
# [5] = system: Mycobacterium tuberculosis; assay: Antibacterial activity against Mycobacterium tuberculosis; assay type: functional, organism-based
# [6] = Selectivity index, ratio of CC50 african green monkey Vero cells to IC50 for Mycobacterium tuberculosis; assay type: toxicity; details: read-out: Ratio CC50/IC50
# [7] = system: PC-12; assay: Anti amyotrophic lateral sclerosis activity in rat PC-12 cells assessed as decrease in G93A SOD1 aggregate formation relative to control; assay type: functional; set-up: scale not given: the % may be the effect or the level left
# [8] = biological target: Acetylcholinesterase (Electrophorus electricus, UniProt O42275); assay: Inhibition of electric eel AChE
# Acetylcholinesterase, sequence (O42275 whole entry): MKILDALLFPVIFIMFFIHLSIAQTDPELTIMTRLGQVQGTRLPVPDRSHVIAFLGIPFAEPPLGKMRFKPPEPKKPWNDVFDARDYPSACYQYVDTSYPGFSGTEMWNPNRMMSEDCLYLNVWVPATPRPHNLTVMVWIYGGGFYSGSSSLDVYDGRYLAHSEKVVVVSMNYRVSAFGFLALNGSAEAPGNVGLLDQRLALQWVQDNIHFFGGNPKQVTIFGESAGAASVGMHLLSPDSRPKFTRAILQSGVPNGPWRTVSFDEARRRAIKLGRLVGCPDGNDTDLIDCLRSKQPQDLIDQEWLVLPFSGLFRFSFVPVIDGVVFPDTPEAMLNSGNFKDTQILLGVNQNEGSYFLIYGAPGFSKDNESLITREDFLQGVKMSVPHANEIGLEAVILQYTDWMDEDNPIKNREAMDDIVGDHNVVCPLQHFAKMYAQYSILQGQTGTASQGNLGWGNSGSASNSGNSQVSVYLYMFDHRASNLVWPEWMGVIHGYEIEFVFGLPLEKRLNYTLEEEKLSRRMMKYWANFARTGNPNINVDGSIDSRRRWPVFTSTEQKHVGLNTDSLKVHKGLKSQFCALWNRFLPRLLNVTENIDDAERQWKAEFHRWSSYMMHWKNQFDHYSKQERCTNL
# [9] = biological target: Cholinesterase (Equus caballus) (UniProt P81908); assay: Inhibition of equine serum BChE at 10^-3 M relative to control; assay type: cell-free; details: dose 1.0 10^-3M
# Cholinesterase (Equus caballus), sequence (P81908 whole entry): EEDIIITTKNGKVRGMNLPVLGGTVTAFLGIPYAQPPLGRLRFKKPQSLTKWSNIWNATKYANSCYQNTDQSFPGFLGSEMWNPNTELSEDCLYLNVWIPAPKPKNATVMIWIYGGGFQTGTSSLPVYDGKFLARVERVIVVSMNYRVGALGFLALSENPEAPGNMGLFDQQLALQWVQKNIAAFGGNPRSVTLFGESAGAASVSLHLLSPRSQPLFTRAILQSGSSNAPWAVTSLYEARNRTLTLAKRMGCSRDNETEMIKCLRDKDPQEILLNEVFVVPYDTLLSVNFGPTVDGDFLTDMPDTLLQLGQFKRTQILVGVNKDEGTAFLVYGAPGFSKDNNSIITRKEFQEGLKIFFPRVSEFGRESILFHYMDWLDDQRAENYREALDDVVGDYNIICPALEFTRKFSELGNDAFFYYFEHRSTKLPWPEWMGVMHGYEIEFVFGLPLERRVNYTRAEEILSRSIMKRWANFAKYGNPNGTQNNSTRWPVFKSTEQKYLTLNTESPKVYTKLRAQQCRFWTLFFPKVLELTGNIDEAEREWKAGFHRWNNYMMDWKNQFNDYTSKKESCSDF
# [10] = biological target: T3, Amine oxidase [flavin-containing] A (Homo sapiens, UniProt P21397); assay: Inhibition of MAO-A (unknown origin) relative to control
# T3 sequence (P21397 whole entry): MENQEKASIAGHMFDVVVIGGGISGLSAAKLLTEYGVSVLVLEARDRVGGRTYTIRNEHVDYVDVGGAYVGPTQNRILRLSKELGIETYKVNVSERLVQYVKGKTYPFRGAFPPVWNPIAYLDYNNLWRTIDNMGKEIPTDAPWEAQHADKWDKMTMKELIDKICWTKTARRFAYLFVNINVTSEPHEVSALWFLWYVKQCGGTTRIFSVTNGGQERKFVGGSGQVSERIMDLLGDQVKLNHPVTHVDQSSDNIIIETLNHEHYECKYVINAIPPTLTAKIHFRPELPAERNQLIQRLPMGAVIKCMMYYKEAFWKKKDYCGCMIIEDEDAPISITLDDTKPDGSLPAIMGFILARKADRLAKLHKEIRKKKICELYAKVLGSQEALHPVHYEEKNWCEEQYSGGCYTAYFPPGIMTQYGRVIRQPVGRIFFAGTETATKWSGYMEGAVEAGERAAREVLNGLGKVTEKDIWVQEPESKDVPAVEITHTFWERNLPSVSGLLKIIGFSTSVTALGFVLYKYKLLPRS
# [11] = system: Bacillus subtilis; assay: Antibacterial activity against Bacillus subtilis assessed as diameter of inhibition zone at 100 ppm; assay type: functional; details: read-out: DIZ
# [12] = system: Streptococcus mutans; assay: Antibacterial activity against Streptococcus mutans assessed as diameter of inhibition zone at 100 ppm; assay type: functional; details: read-out: DIZ
# [13] = system: Micrococcus luteus; assay: Antibacterial activity against Micrococcus luteus assessed as diameter of inhibition zone at 100 ppm; assay type: functional; details: read-out: DIZ
# [14] = system: Pseudomonas aeruginosa; assay: Antibacterial activity against Pseudomonas aeruginosa assessed as diameter of inhibition zone at 100 ppm; assay type: functional; details: read-out: DIZ
# [15] = system: Salmonella typhi; assay: Antibacterial activity against Salmonella typhi assessed as diameter of inhibition zone at 100 ppm; assay type: functional, Salmonella enterica subsp. enterica serovar Typhi; details: Salmonella enterica, read-out: DIZ
# [16] = system: Salmonella paratyphi; assay: Antibacterial activity against Salmonella paratyphi assessed as diameter of inhibition zone at 100 ppm; assay type: functional, Salmonella enterica subsp. enterica serovar Paratyphi A; details: Salmonella enterica, read-out: DIZ
# [17] = system: Candida albicans; assay: Antifungal activity against Candida albicans assessed as diameter of inhibition zone at 100 ppm; assay type: functional; details: read-out: DIZ
# [18] = system: Trichoderma viride; assay: Antifungal activity against Trichoderma viride assessed as diameter of inhibition zone at 100 ppm; assay type: functional; details: read-out: DIZ
# [19] = biological target: T4, Amine oxidase [flavin-containing] B (Homo sapiens, UniProt P27338); assay: Inhibition of MAO-B (unknown origin)
# T4 sequence (P27338 whole entry): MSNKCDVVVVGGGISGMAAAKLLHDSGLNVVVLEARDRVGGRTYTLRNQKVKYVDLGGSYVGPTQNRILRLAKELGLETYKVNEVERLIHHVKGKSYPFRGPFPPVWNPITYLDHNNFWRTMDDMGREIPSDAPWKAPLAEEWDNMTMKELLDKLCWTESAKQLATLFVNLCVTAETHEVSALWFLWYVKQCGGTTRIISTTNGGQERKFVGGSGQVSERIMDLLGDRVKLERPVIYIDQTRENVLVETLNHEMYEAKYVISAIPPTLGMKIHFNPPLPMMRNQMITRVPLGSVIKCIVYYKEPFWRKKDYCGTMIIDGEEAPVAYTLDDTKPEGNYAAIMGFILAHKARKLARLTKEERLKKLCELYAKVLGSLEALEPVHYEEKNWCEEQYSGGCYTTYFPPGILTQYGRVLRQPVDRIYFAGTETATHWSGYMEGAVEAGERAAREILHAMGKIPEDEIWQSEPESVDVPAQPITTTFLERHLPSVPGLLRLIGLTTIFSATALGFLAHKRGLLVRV
# [20] = system: PC-12; assay: Anti amyotrophic lateral sclerosis activity in rat PC-12 cells assessed as decrease in G93A SOD1 aggregate formation; assay type: functional; details: read-out: ED50 (the source's name)
# [21] = system: PC-12; assay: Cytotoxicity against rat PC-12 cells; assay type: functional; details: read-out: LD50 (the source's name)
# [22] = biological target: Glycogen synthase kinase-3 beta (Homo sapiens, UniProt P49841); assay: Inhibition of human GSK-3beta
# Glycogen synthase kinase-3 beta, sequence (P49841 whole entry): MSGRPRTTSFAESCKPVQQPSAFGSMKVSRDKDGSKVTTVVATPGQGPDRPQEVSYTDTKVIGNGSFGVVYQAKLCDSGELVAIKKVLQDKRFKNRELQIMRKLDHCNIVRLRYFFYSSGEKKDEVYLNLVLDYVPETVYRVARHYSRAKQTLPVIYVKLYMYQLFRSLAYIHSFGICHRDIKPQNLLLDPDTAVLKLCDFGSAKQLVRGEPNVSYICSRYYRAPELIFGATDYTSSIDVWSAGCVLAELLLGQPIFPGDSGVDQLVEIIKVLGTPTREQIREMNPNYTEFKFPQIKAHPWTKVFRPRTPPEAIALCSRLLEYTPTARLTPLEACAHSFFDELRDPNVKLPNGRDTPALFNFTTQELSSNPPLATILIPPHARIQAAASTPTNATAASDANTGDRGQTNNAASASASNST
# [23] = biological target: T3, Amine oxidase [flavin-containing] A; assay: Inhibition of human MAO-A
# [24] = biological target: T4, Amine oxidase [flavin-containing] B; assay: Inhibition of human MAO-B
# [25] = species: Homo sapiens; assay: Selectivity index, ratio of Ki for human MAO-B to Ki for human MAO-A
# [26] = biological target: Amine oxidase [flavin-containing] A (Rattus norvegicus, UniProt P21396); assay: Inhibition of rat brain synaptosome MAO-A; assay type: subcellular
# Amine oxidase [flavin-containing] A (Rattus norvegicus, UniProt P21396), sequence (P21396 whole entry): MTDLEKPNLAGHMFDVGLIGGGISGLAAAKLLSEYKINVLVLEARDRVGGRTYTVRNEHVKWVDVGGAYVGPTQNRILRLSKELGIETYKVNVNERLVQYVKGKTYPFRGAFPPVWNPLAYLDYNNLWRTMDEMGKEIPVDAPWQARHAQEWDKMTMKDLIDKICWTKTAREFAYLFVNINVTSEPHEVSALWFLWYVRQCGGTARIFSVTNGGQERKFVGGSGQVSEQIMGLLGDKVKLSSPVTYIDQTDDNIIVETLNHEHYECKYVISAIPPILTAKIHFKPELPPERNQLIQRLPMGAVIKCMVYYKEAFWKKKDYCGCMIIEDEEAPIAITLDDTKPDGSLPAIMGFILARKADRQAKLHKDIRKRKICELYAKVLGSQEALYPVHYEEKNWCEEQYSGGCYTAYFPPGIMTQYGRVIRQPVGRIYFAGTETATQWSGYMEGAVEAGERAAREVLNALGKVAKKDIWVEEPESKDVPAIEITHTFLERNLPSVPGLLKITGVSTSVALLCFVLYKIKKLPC
# [27] = biological target: Amine oxidase [flavin-containing] B (Rattus norvegicus, UniProt P19643); assay: Inhibition of rat brain synaptosome MAO-B; assay type: subcellular
# Amine oxidase [flavin-containing] B (Rattus norvegicus, UniProt P19643), sequence (P19643 whole entry): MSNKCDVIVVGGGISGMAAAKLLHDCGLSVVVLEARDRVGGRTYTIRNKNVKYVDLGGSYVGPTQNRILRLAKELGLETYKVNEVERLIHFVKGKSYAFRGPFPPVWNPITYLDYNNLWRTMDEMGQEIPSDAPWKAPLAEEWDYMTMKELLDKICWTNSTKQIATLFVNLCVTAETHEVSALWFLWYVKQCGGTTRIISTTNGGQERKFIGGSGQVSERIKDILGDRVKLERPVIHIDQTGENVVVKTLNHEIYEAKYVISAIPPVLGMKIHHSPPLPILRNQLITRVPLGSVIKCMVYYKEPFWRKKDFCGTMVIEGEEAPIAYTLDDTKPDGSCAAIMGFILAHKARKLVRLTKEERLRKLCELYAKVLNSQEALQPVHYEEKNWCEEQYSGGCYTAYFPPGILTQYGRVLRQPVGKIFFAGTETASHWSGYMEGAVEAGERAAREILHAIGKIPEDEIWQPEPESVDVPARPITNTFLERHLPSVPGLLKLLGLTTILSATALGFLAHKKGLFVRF
compound,measurement,setting,value
C#CCN(C)[C@H](C)Cc1ccccc1 [SELEGILINE],ED50,[1],0.3 µM
NS(=O)(=O)c1ccc(N/N=C2/C=NN(c3ccccc3C(=O)O)C2=O)cc1,IC50,[2],3.76 µM
same,IC50,[3],0.66 µM
same,Ratio IC50,[4],5.69
O=C1CC(NC(=O)CNc2ccc(Cl)cc2)=NN1,IC50,[5],< 0.37 µM
same,selectivity ratio,[6],633
C[C@@H]1C[C@H]2O[C@@H]2/C=C\C=C\C(=O)Cc2c(Cl)c(O)cc(O)c2C(=O)O1 [RADICICOL],Activity,[7],80%
Cc1cccc(C)c1/C=N/c1c(C)n(C)n(-c2ccccc2)c1=O,IC50,[8],0.057 µM
same,inhibition,[9],96.3%
same,inhibition (INH),[10],42.3%
Cc1[nH]n(-c2ccccc2)c(=O)c1C(c1ccc([N+](=O)[O-])cc1[N+](=O)[O-])c1c(O)ccc2ccccc12 (centres undefined),zone of inhibition at 100 µg/mL,[11],22.5 mm
same,zone of inhibition at 100 µg/mL,[12],14.5 mm
same,zone of inhibition at 100 µg/mL,[13],21.5 mm
same,zone of inhibition at 100 µg/mL,[14],13.5 mm
same,zone of inhibition at 100 µg/mL,[15],20 mm
same,zone of inhibition at 100 µg/mL,[16],20 mm
same,zone of inhibition at 100 µg/mL,[17],28.5 mm
same,zone of inhibition at 100 µg/mL,[18],21.5 mm
Cc1c(/N=C/c2ccc(OCCCN(C)C)cc2)c(=O)n(-c2ccccc2)n1C,inhibition,[9],35.3%
same,inhibition (INH),[10],38.1%
same,IC50,[19],0.049 µM
O=C1CC(NC(=O)CN2CCNCC2)=NN1,IC50,[5],< 0.44 µM
same,selectivity ratio,[6],631
Cc1cc(SCc2cc(=O)[nH][nH]2)c(Cl)cc1Cl,EC50,[20],0.4 µM
same,CC50,[21],> 100 µM
Cn1cc(-c2[nH][nH]c(=O)c2-c2cn(C)c3ccccc23)c2ccccc21,IC50,[22],0.034 µM
Cc1c(-c2cc(C#N)c(N)o2)c(=O)n(-c2ccccc2)n1C,Ki,[23],0.000346 µM
same,Ki,[24],0.766 µM
same,Ratio Ki,[25],2210
same,IC50,[26],0.00799 µM
same,IC50,[27],0.0454 µM
Cc1[nH]n(-c2ccccc2)c(=O)c1C(c1ccc(Br)cc1)c1c(O)ccc2ccccc12 (centres undefined),zone of inhibition at 100 µg/mL,[11],18.5 mm
same,zone of inhibition at 100 µg/mL,[12],29.5 mm
same,zone of inhibition at 100 µg/mL,[13],18.5 mm
same,zone of inhibition at 100 µg/mL,[14],14.5 mm
same,zone of inhibition at 100 µg/mL,[15],19.5 mm
same,zone of inhibition at 100 µg/mL,[16],19.5 mm
same,zone of inhibition at 100 µg/mL,[17],15.5 mm
same,zone of inhibition at 100 µg/mL,[18],13.5 mm
